Measurements from US20250040549A1, “FUNGICIDAL COMPOSITIONS” (SYNGENTA CROP PROTECTION AG, priority 2021, published 2025).

Experiments:
[1] = system: Mycosphaerella arachidis Syn. Cercospora arachidicola; experiment: Mycosphaerella arachidis growth inhibition in nutrient broth, microtiter plate; type: cell-based; conditions: alone, 5-6 days
Procedure: Mycosphaerella arachidis Syn. Cercospora arachidicola (Brown Leaf Spot of Peanut): Conidia of the fungus from cryogenic storage were directly mixed into nutrient broth (PDB potato dextrose broth). A DMSO solution of the test compounds was placed into a microtiter plate (96-well format) and the nutrient broth containing the fungal spores was added to it. The test plates were incubated at 24 C and the inhibition of growth was determined photometrically after 5-6 days at 620 nm

[2] = system: Phakopsora pachyrhizi (Asian soybean rust); experiment: Phakopsora pachyrhizi on leaf disks from sprayed soybean plants; type: in vivo; conditions: alone, 11 to 14 days after inoculation; for inhibition at 1 g/ha: 1 g ai/ha
Procedure: Phakopsora Pachyrhizi (Soybean Rust):
Whole soybean plants are treated with the recited active ingredients 4 weeks after planting. 1 day after spraying leaf disks are cut from the first trifoliate leaf. Five repetitions at each rate are conducted. The leaf disks are inoculated with Phakopsora pachyrhizi (Asian soybean rust) one day after treatment. Evaluation of the leaf disks is conducted 11 to 14 days after inoculation and the activity is derived from the relation of the treated vs untreated, infested check. The rates of the active ingredients used are given in Table as g active ingredient (a.i.)/ha.

Alternaria solani = Alternaria solani growth inhibition in nutrient broth, microtiter plate; type: cell-based; conditions: alone, 48 hrs
Procedure: Alternaria solani (Early Blight Tomato/Potato): Conidia of the fungus from cryogenic storage were directly mixed into nutrient broth (PDB potato dextrose broth). A DMSO solution of the test compounds was placed into a microtiter plate (96-well format) and the nutrient broth containing the fungal spores was added to it. The test plates were incubated at 24 C and the inhibition of growth was determined photometrically after 48 hrs.

[3] = system: Glomerella Lagenarium Syn. Colletotrichum lagenarium; experiment: Glomerella lagenarium growth inhibition in nutrient broth, microtiter plate; type: cell-based; conditions: alone, 72 hrs
Procedure: Glomerella Lagenarium Syn. Colletotrichum lagenarium (Anthracnose of Cucurbits): Conidia of the fungus from cryogenic storage were directly mixed into nutrient broth (PDB potato dextrose broth). A DMSO solution of the test compounds was placed into a microtiter plate (96-well format) and the nutrient broth containing the fungal spores was added to it. The test plates were incubated at 24 C and the inhibition of growth was determined photometrically after 72 hrs at 620 nm.

Botrytis cinerea = Botrytis cinerea growth inhibition in nutrient broth, microtiter plate; type: cell-based; conditions: alone, 72 hrs
Procedure: Botrytis cinerea (Gray Mould): Conidia of the fungus from cryogenic storage were directly mixed into nutrient broth ([…] potato dextrose broth). A DMSO solution of the test compounds was placed into a microtiter plate (96-well format) and the nutrient broth containing the fungal spores was added to it. The test plates were incubated at 24 C and the inhibition of growth was determined photometrically after 72 hrs.

Sclerotinia sclerotiorum = Sclerotinia sclerotiorum growth inhibition in nutrient broth, microtiter plate; type: cell-based; conditions: alone, 72 hrs
Procedure: Sclerotinia sclerotiorum (Cottony Rot, White Mold, Etc.): Mycelial fragments of the fungus prepared from a fresh liquid culture were directly mixed into nutrient broth (PDB potato dextrose broth). A DMSO solution of the test compounds was placed into a microtiter plate (96-well format) and the nutrient broth containing the fungal spores was added to it. The test plates were incubated at 24 C and the inhibition of growth was determined photometrically after 72 hrs at 620 nm.

Septoria tritici = Septoria tritici growth inhibition in nutrient broth, microtiter plate; type: cell-based; conditions: alone, 72 hrs
Procedure: Septoria tritici (Leaf Blotch): Conidia of the fungus from cryogenic storage were directly mixed into nutrient broth (PDB potato dextrose broth). A DMSO solution of the test compounds was placed into a microtiter plate (96-well format) and the nutrient broth containing the fungal spores was added to it. The test plates were incubated at 24 C and the inhibition of growth was determined photometrically after 72 hrs.

[4] = Phakopsora pachyrhizi, foliar, read-out: Observed Activity (%)

Row | SMILES | Observed Activity (%) ([1]; 0.001 g ai/ha) | Observed Activity (%) ([1]; 0.005 g ai/ha) | inhibition at 1 g/ha [2, 4] | Observed Activity (%) (Alternaria solani; 0.005 g ai/ha) | Observed Activity (%) ([3]; 0.001 g ai/ha) | Observed Activity (%) ([3]; 0.005 g ai/ha) | Observed Activity (%) (Botrytis cinerea; 0.005 g ai/ha) | Observed Activity (%) (Sclerotinia sclerotiorum; 0.001 g ai/ha) | Observed Activity (%) (Sclerotinia sclerotiorum; 0.005 g ai/ha) | Observed Activity (%) (Septoria tritici; 0.001 g ai/ha) | Observed Activity (%) ([2]; 0.25 g ai/ha) | Observed Activity (%) ([2]; 0.5 g ai/ha) | further results
1 | COC(=O)NCc1cc(-c2ccn(-c3c(F)cc(C(C)C)cc3F)n2)ccc1C [Compound A-1.1, Methyl N-[[5-[1-(2,6-difluoro-4-isopropyl-phenyl)pyrazol-3-yl]-2-methyl-phenyl]methyl]carbamate] | 0% | 20% | 0% | 0% | 0% | 0% | 0% | 0% | 0% | 20% |  |  | 
2 | CCC(=O)Oc1c(OC)ccnc1C(=O)N[C@@H](C)C(=O)O[C@@H](C)[C@@H](C)c1ccccc1C [Metarylpicoxamid, metarylpicoxamid] |  |  |  |  |  |  |  |  |  |  | 0% | 34% | Observed Activity (%) ([1]; 0.0080 g ai/ha): 20%; Observed Activity (%) ([1]; 0.0246 g ai/ha): 50%; Observed Activity (%) (Alternaria solani; 0.074 g ai/ha): 0%; Observed Activity (%) (Alternaria solani; 0.22 g ai/ha): 20%; Observed Activity (%) (Alternaria solani; 0.66 g ai/ha): 50%; Observed Activity (%) ([3]; 0.22 g ai/ha): 0%; Observed Activity (%) ([3]; 0.66 g ai/ha): 0%; Observed Activity (%) ([3]; 2 g ai/ha): 70%; Observed Activity (%) (Botrytis cinerea; 0.0246 g ai/ha): 0%; Observed Activity (%) (Botrytis cinerea; 0.074 g ai/ha): 20%; Observed Activity (%) (Botrytis cinerea; 0.22 g ai/ha): 50%; Observed Activity (%) (Sclerotinia sclerotiorum; 2 g ai/ha): 50%; Observed Activity (%) (Septoria tritici; 0.008 g ai/ha): 20%; Observed Activity (%) (Septoria tritici; 0.0246 g ai/ha): 50%; Observed Activity (%) (Septoria tritici; 0.074 g ai/ha): 70%
3 | COC(=O)NCc1cc(-c2ccn(-c3c(F)cc(C4CC4)cc3F)n2)ccc1C [Compound A-1.3, methyl N-[[5-[1-(4-cyclopropyl-2,6-difluoro-phenyl)pyrazol-3-yl]-2-methyl-phenyl]methyl]carbamate] | 0% | 50% | 2% | 20% | 0% | 0% | 0% | 0% | 0% | 50% |  |  | inhibition at 0.5 g/ha ([2]; Phakopsora pachyrhizi, foliar, 0.5 g ai/ha, read-out: Observed Activity (%)): 0%; Observed Activity (%) (Alternaria solani; 0.01 g ai/ha): 50%
4 | O=C(Nc1ccccc1F)c1ccc(-c2noc(C(F)(F)F)n2)cc1 [Flufenoxadiazam, flufenoxadiazam] |  |  |  |  |  |  |  |  |  |  | 0% | 10% | Observed Activity (%) (Alternaria solani; 2.22 g ai/ha): 0%; Observed Activity (%) (Alternaria solani; 6.66 g ai/ha): 0%; Observed Activity (%) (Alternaria solani; 20 g ai/ha): 0%
